The values that follow come from patent US5741671A, “Isolation cloning and expression of transmembrane water channel aquaporin 1(AQP1)” (The Johns Hopkins University, priority 1995, dated 1998).

The target of one experiment is T1, AQP5 (Rattus norvegicus, UniProt P47864).
T1 construct: the entire open reading frame of the salivary cDNA; expressed in transfected cells; host or cells: Xenopus oocytes injected with cRNA from expression construct pXβG
Put plainly: Xenopus oocyte swelling assay, AQP5 (salivary) cRNA-injected oocytes (Example 11). It is filed as cell-based. The protocol: Functional Expression in Oocytes-A 1-kb BamHI fragment containing the 5'untranslated sequence and the entire open reading frame of the salivary cDNA was blunt-end-ligated into the BglII site of the Xenopus expression construct pXβG, which contains the HindIII-Pst insert of pSP64T in pBS II KS (Preston et al., 1992, Science, 256:385-387). Capped cRNA was synthesized in vitro after digestion with Xbal (Preston et al., 1993). Defolliculated stage V-VI Xenopus oocytes were injected with 50 nl of water or up to 5 ng of sample cRNAs and incubated for 3 days at 18° C. in 200 mosM modified Barth's buffer. The oocytes were transferred to 70 mosM modified Barth's buffer at 21° C.; oocyte swelling was monitored by videomicroscopy, and the coefficient of osmotic water permeability (Pf) was determined (Preston et al., 1992, 1993). Uptake of [^14 C]urea or [^14 C]glycerol was measured by incubating oocytes in 200 mosM Barth's buffer for 10-20 min at 21° C. followed by washing and SDS solubilization. No increase in ion conductance was found when control oocytes were compared to RNA-injected oocytes by two electrode voltage clamps (Preston et al., 1992). […]

The test system of a further experiment is Red cell water channels. The note with it: cited from earlier work.
Experiment [1] concerns the target T2, AQP1 (Homo sapiens, UniProt P29972).
T2 sequence (P29972 1-269): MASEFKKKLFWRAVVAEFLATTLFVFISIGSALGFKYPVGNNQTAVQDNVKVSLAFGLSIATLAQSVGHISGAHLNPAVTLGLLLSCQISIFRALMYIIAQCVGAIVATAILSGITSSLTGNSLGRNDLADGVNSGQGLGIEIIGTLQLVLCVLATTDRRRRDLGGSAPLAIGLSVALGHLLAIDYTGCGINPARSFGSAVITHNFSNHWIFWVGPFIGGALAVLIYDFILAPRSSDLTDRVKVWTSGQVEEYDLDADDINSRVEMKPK
Put plainly: Xenopus oocyte swelling assay, AQP1 cRNA-injected oocytes (Example 11). It is filed as cell-based. Also noted: expressed in transfected cells; host or cells: Xenopus oocytes injected with AQP1 cRNA.

Experiment [2] deals with T2, AQP1. Put plainly: Xenopus oocyte osmotic swelling assay, AQP1 RNA-injected oocytes (Example 4). The arrangement: expressed in transfected cells; host or cells: Xenopus laevis oocytes injected with in vitro transcribed AQP1 RNA. It is filed as cell-based. The following applies: for Pf (osmotic water permeability): AQP1 RNA-injected (10 ng) oocytes, 22° C. The method, then: Expression of AQP1 in Xenopus oocytes. Oocytes were removed from female Xenopus laevis frogs and prepared as described by Dascal (CRC Crit. Rev. Biochem., 1987, 22:317-373). Oocytes were injected with 0.05 microliters of water (control) or the same volume of water containing 1-10 nanograms of AQP1 RNA. The oocytes were incubated for up to 96 hours at 18° C. in modified Barth's buffer (88 mM NaCl, 1 mM KCl, 0.8 mM MgSO4, 0.3 mM Ca(NO3)2, 0.4 mM CaCl2, 2.4 mm NaHCO3, 10 mM HEPES, pH=7.4, total osmolality=200 mOsm/kg) also containing antibiotics. The whole oocytes were then removed and total cellular protein was dissolved in 40 microliters of buffer containing 1% (w/v) SDS and analyzed by immunoblot (Towbin et al., 1979, Proc. Natl. Acad. Sci. USA 76:4350-4354).
A swelling assay was adapted from that of published work (Fischbarg et al., 1990, Proc. Natl. Acad. Sci. USA 87:3244-3247; Zhang et al., 1990, J. Biol. Chem. 265: 15375-15378). Control-injected oocytes and AQP1 RNA-injected oocytes were incubated at 22° C. in modified Barth's solution diluted with distilled H2 O to 30% of the original tonicity. The oocytes were then observed by videomicroscopy. Swelling was monitored with a Nikon phase-contrast microscope equipped for videorecording. The longest (D1) and shortest (D2) diameters of the oocytes were measured at 15- to 30-second intervals. Oocyte volumes (V) at each time point were calculated relative to volume at the initial observation (Vo):
The change in relative volume with time, d(V/Vo)/dt, up to 8 minutes (or time of oocyte rupture) was fitted by computer to a quadratic polynomial, and initial rates of swelling were calculated. Osmotic water permeability (Pf, in cm/s) was calculated from osmotic swelling data, initial oocyte surface area (S=0.045 cm^2), and the molar volume of water (Vw =18 cm^3 /mol) (Zhang et al., 1990, J. Biol. Chem. 15375):
Pf =Vo ×d(V/Vo)dt]/[S×Vw x(osmm
After 72 hours, control- or AQP1 RNA-injected (10 ng) oocytes were treated as indicated. Some oocytes were left in standard Barth's buffer prior to measurement of osmotic swelling at 22° C. Other oocytes were incubated 5 minutes in Barth's buffer containing 0.3 mM or 3 mM HgCl2 as described, then removed and incubated for 15 min in 5 mM β-mercaptoethanol prior to osmotic swelling in the presence of β-mercaptoethanol.
After 72 hours, control-injected oocytes and oocytes injected with 0.1 to 10 ng of AQP1 RNA were studied for osmotic swelling at 22° C. The amount of AQP1 protein was estimated by dilutional immunoblotting (Denker et al., 1988, J. Biol. Chem. 263:15634; Laemmli, 1970, Nature 227:680; Towbin et al., 1979, Proc. Natl. Acad. Sci., 76:4350; Davis and Bennett, 1982, 257:5816).

Setting [3] is: 5 mM β-mercaptoethanol 30 min after 1 mM HgCl2.

Entries after “also recorded” stand apart in the source; their conditions may differ.

T1 sequence (P47864 whole entry): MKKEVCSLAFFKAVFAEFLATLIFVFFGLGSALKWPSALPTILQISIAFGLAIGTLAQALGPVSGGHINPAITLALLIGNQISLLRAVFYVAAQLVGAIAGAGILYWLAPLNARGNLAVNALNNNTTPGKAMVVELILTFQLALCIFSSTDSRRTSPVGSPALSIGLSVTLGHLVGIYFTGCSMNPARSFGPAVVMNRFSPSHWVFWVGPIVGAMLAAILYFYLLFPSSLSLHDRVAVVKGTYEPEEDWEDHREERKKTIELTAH

In the case of `[Cl][Hg][Cl]` [HgCl2], at AQP5 (1 mM HgCl2, 5 min), the “inhibition of Pf of AQP5-expressing oocytes” value is on record as “comparable reduction; also recorded: reversibly inhibited”. For the same compound, the “inhibition of the red cell / membrane water channel” value in the experiment on Red cell water channels (submillimolar concentrations) is on record as “can be inhibited by submillimolar concentrations”. In addition, the “inhibition of the increase in Pf mediated by AQP1” value at AQP1 [1] (1 mM HgCl2, 5 min) is recorded as “blocked”. The “inhibition of swelling of AQP1 RNA-injected oocytes” value at AQP1 [2] (0.3 mM HgCl2) is “inhibited”. Besides, the results for the “Pf (osmotic water permeability)” value on AQP1 [2] (0.3 mM HgCl2 5 minutes) and on AQP1 [2] (3.0 mM HgCl2 5 minutes) were 80.7 cm/s x 10^-4 and 34.5 cm/s x 10^-4, respectively.

As to `OCCS` [β-mercaptoethanol], the “restoration of Pf of AQP5-expressing oocytes after HgCl2” value at AQP5 (setting [3]) is “restored”. Moreover, the “restoration of the membrane water channel after HgCl2” value in the experiment on Red cell water channels (5 mM β-mercaptoethanol) is recorded as “may be restored”. On AQP1 [1] (setting [3]), the “restoration of Pf of AQP1-expressing oocytes after HgCl2” value is “restored”. Besides, the “restoration of swelling after HgCl2 inhibition” value at AQP1 [2] (5 mM β-mercaptoethanol after 0.3 mM HgCl2) was “restored”.
